Measured values: article PMC8838847, “Design, Synthesis and Cytotoxicity of Thiazole-Based Stilbene Analogs as Novel DNA Topoisomerase IB Inhibitors” (Molecules, 2022)

Experiments:
[1] = tested on: human colon cancer (HCT116) cells; test: MTT cytotoxicity assay, HCT116; assay type: cell-based; conditions: five doses 0.01-100 µM
Protocol: (§1) The cytotoxicity of the desired compounds was assessed through MTT assay against two human cancer cell lines, human breast cancer (MCF-7) and colon cancer (HCT116), and one normal cell line, human embryonic kidney 293T (HEK293T). CPT and etoposide (VP-16) were used as positive controls. The compounds were incubated with cells for 72 h in a five-dose assay ranging from 0.01 to 100 µΜ. After the drug treatments, MTT solution was added to test the percentage growth of tumor cells.
(§2) The cells were cultured on RPMI 1640 Medium at 37 °C in a humidified atmosphere with 5% CO2. The cytotoxicities of the target compounds were evaluated through MTT assay against two human cancer cell lines (human breast cancer MCF-7 and human colon cancer HCT116). For the compound treatment experiments, the cancer cells were treated with the compounds (pre-dissolved in DMSO) via a five-dose assay ranging from 10^−8 to 10^−4 M. After incubation for 72 h at 37 °C, MTT solution (20 μL, 2.5 mg/mL) in PBS (PBS without MTT as the blank) was added to each well of the culture plate. After incubation for 4 h, the formazan crystal formed in the well was dissolved in 100 μL of DMSO for an optical density of 570 nm. The IC50 value was calculated using nonlinear regression analysis (GraphPad Prism). Every experiment was conducted three times, independently.

[2] = MTT cytotoxicity assay, HEK293T normal cells; assay type: cell-based, human; conditions: human, HEK293T cells (normal cell line)
Protocol: as §1, §2

[3] = target: T1, calf thymus Top1 (Bos taurus, UniProt F1MN93); test: Top1-mediated DNA relaxation assay; assay type: biochemical; conditions: for supercoiled DNA remaining: compound at 125 μM; for Relaxation Assay (Top1 inhibitory activity): compounds at 50 µM, semi-quantitative, relative to CPT at 50 µM
T1 construct: 1 unit of calf thymus Top1; from tissue; host or cells: calf thymus
T1 sequence (F1MN93 1-767): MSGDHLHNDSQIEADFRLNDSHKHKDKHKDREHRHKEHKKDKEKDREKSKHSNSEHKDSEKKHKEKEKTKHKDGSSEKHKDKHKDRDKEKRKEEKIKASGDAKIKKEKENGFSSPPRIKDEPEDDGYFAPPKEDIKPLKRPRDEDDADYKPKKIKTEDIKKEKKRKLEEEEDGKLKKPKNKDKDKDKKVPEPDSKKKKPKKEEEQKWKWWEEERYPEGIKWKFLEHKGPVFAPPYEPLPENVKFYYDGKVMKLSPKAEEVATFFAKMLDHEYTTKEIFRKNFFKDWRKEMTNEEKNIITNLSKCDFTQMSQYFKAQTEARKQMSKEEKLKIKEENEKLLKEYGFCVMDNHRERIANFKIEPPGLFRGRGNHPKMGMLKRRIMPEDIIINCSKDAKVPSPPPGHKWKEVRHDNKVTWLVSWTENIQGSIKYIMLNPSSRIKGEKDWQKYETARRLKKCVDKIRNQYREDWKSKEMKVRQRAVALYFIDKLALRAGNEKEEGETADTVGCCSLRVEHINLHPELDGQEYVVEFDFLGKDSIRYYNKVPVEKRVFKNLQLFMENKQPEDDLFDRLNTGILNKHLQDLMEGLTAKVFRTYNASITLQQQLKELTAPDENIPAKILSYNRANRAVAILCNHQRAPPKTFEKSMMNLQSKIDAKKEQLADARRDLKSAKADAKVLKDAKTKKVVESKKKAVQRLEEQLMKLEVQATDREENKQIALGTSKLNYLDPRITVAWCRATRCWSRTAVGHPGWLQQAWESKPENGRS
Protocol: The synthesized compounds 6–37 were evaluated for Top1 inhibitory activity by measurement of the Top1-mediated DNA relaxation assay. The compounds were tested at 50 µΜ using CPT as positive control, and the results were semi-quantitatively expressed relative to CPT at 50 µΜ as follows: ++++, more than 80% activity; +++, between 40% and 79% activity; ++, between 10% and 39% activity; +, less than 10% activity. […] In phenyl A, the 4-position halogen (X) remarkably affected the inhibition against Top1. […] In phenyl B, the introduction of substituents at the 3-position was beneficial for the Top1 inhibition, and the derivatives presented good tolerance of the 3-substituents, since compounds 8 (++++) and 13 (+++) with electron-donating -Me or -OMe and also compound 19 (+++) with electron-withdrawing -Br had good inhibition against Top1. For substituents at the 4-position, the strong electron-withdrawing -CF3 (10, +++) and -F (15, +++) increased the Top1 inhibitory activity compared to compound 6 (R = H), while the weak electron-withdrawing -Cl (17, +) and the electron-donating -Me (9, +) and -OMe (14, +) decreased the activity, with the exception of tert-Bu (11, +++).
As previously mentioned, compound 8 had the best inhibition activity against Top1, and therefore was selected for further investigation. A semi-quantitative Top1-mediated relaxation assay of compound 8 was performed at concentrations of 0.2, 1, 5, 25 and 125 μM.
The compounds were tested for their Top1 inhibitory activity using a Top1-mediated relaxation assay. Briefly, the reaction mixture (20 μL) with 0.5 μg of supercoiled pBR322 DNA in relaxation buffer (10 mM Tris-HCl, pH 7.5, 50 mM KCl, 5 mM MgCl2, 15 μg/mL BSA, 40 μg/mL DTT) was incubated with 1 unit of calf thymus Top1 in the absence or in the presence of the compound for 30 min at 37 °C. Then, the reaction solution was added with 6 × loading buffer (4 μL) and was analyzed using a 0.8% agarose gel in TBE buffer at 4.6 V/cm for 1.5 h. Gel was stained with 1 × GelRed for 30 min and subsequently visualized with a UV transilluminator.

[4] = tested on: human breast cancer (MCF-7) cells; test: MTT cytotoxicity assay, MCF-7; assay type: cell-based; conditions: five doses 0.01-100 µM
Protocol: as §1, §2

[5] = tested on: human embryonic kidney 293T (HEK293T) cells; test: MTT cytotoxicity assay, HEK293T normal cells; assay type: cell-based; conditions: 72 h, normal cell line
Protocol: as §1, §2

[6] = semi-quantitative relaxation assay (Figure 3)

**Q.** What does the source list for CC[C@@]1(O)C(=O)OCc2c1cc1n(c2=O)Cc2cc3ccccc3nc2-1 [CPT, camptothecin, reference compound]?
**A.** IC50 ([1]; Homo sapiens, HCT-116, 72 h): 0.012 ± 0.001 µM; IC50 at 72 h [2]: 0.1 ± 0.003 µM; supercoiled DNA remaining [3, 6]: 58%; IC50 ([4]; Homo sapiens, MCF7, 72 h): 0.34 ± 0.026 µM

**Q.** Which results are given for Cc1cccc(/C=C/c2nc(-c3ccc(F)cc3)cs2)c1 [Compound 8, (E)-2-(3-methylstyryl)-4-(4-fluorophenyl)thiazole]?
**A.** melting point: 148 to 149 °C; IC50 [5]: 10.2 ± 0.68 µM; IC50 at 72 h [2]: > 10 µM; Top1 inhibition compared with CPT ([3]; compound at 25 μM, semi-quantitative relaxation assay (Figure 3)): equipotent Top1 inhibition with CPT; supercoiled DNA remaining [3, 6]: 75%

**Q.** For CC(C)(C)c1ccc(/C=C/c2nc(-c3ccc(F)cc3)cs2)cc1 [Compound 11, (E)-2-(4-tert-butylstyryl)-4-(4-fluorophenyl)thiazole], which melting point is on record?
**A.** The melting point was 146 to 148 °C.

**Q.** What about the IC50 [5] of the same molecule?
**A.** Its IC50 is 12 ± 2.45 µM.

**Q.** And the IC50 at 72 h [2]?
**A.** Its IC50 at 72 h is over 10 µM.

**Q.** What about the IC50 ([4]; 72 h) of the same molecule?
**A.** Its IC50 is 6.31 ± 0.51 µM.

**Q.** What about the IC50 ([4]; Homo sapiens, MCF7, 72 h) of the same molecule?
**A.** Its IC50 is under 10 µM.

**Q.** For CC(C)(C)c1ccc(/C=C/c2nc(-c3ccc(Cl)cc3)cs2)cc1 [Compound 23, (E)-4-(4-chlorophenyl)-2-(4-(tert-butyl)styryl)thiazole], which melting point is on record?
**A.** Its melting point is 74 to 75 °C.

**Q.** What about the IC50 ([1]; 72 h) of the same molecule?
**A.** The IC50 was 2.87 ± 0.26 µM.

**Q.** What about the IC50 ([1]; Homo sapiens, HCT-116, 72 h) of the same molecule?
**A.** The IC50 was under 5 µM.

**Q.** And the IC50 [5]?
**A.** Its IC50 is 18.7 ± 1.37 µM.

**Q.** What about the IC50 at 72 h [2] of the same molecule?
**A.** Its IC50 at 72 h is over 10 µM.

**Q.** And the “Relaxation Assay (Top1 inhibitory activity)” value [3]?
**A.** The value was “+ (less than 10% activity)”.

**Q.** And the IC50 ([4]; 72 h)?
**A.** The IC50 was 7.22 ± 0.4 µM.

**Q.** What about the IC50 ([4]; Homo sapiens, MCF7, 72 h) of the same molecule?
**A.** The IC50 was under 10 µM.

**Q.** Which results are given for COc1ccccc1/C=C/c1nc(-c2ccc(Br)cc2)cs1 [Compound 30, (E)-4-(4-bromophenyl)-2-(2-methoxystyryl)thiazole]?
**A.** melting point: 110 to 112 °C; IC50 ([1]; Homo sapiens, HCT-116, 72 h): > 100 µM; Relaxation Assay (Top1 inhibitory activity) [3]: + (less than 10% activity); IC50 ([4]; Homo sapiens, MCF7, 72 h): > 100 µM

**Q.** For COc1cccc(/C=C/c2nc(-c3ccc(Br)cc3)cs2)c1 [Compound 31, (E)-4-(4-bromophenyl)-2-(3-methoxystyryl)thiazole], which melting point is on record?
**A.** The melting point was 112 to 113 °C.

**Q.** And the IC50 ([1]; Homo sapiens, HCT-116, 72 h)?
**A.** Its IC50 is 40.3 ± 7.8 µM.

**Q.** And the “Relaxation Assay (Top1 inhibitory activity)” value [3]?
**A.** The value was “+ (less than 10% activity)”.

**Q.** And the IC50 ([4]; Homo sapiens, MCF7, 72 h)?
**A.** Its IC50 is 45.8 ± 4.47 µM.

**Q.** Which results are given for COc1ccc(/C=C/c2nc(-c3ccc(Br)cc3)cs2)cc1 [Compound 32, (E)-4-(4-bromophenyl)-2-(4-methoxystyryl)thiazole]?
**A.** melting point: 189 to 191 °C; IC50 ([1]; Homo sapiens, HCT-116, 72 h): > 100 µM; Relaxation Assay (Top1 inhibitory activity) [3]: + (less than 10% activity); IC50 ([4]; Homo sapiens, MCF7, 72 h): > 100 µM

**Q.** Which results are given for Oc1ccccc1/C=C/c1nc(-c2ccc(Br)cc2)cs1 [Compound 33, (E)-2-(2-(4-(4-bromophenyl)thiazol-2-yl)vinyl)phenol]?
**A.** melting point: 226 to 228 °C; IC50 ([1]; 72 h): 4.15 ± 0.76 µM; IC50 ([1]; Homo sapiens, HCT-116, 72 h): < 5 µM; Relaxation Assay (Top1 inhibitory activity) [3]: + (less than 10% activity); IC50 ([4]; Homo sapiens, MCF7, 72 h): 39.2 ± 1.79 µM

**Q.** Which melting point does the source give for Oc1ccc(/C=C/c2nc(-c3ccc(Br)cc3)cs2)cc1 [Compound 35, (E)-4-(2-(4-(4-bromophenyl)thiazol-2-yl)vinyl)phenol] here?
**A.** The melting point was 204 to 205 °C.

**Q.** What about the IC50 ([1]; 72 h) of the same molecule?
**A.** The IC50 was 2.86 ± 0.46 µM.

**Q.** What about the IC50 ([1]; Homo sapiens, HCT-116, 72 h) of the same molecule?
**A.** The IC50 was under 5 µM.

**Q.** What about the “Relaxation Assay (Top1 inhibitory activity)” value [3] of the same molecule?
**A.** Its value is “+ (less than 10% activity)”.

**Q.** What about the IC50 ([4]; Homo sapiens, MCF7, 72 h) of the same molecule?
**A.** Its IC50 is 38 ± 5.82 µM.

**Q.** Which melting point does the source give for CC(C)=CCOc1ccc(/C=C/c2nc(-c3ccc(Br)cc3)cs2)cc1 [Compound 37, (E)-4-(4-bromophenyl)-2-(4-((3-methylbut-2-en-1-yl)oxy)styryl)thiazole] here?
**A.** Its melting point is 134 to 135 °C.

**Q.** And the IC50 ([1]; Homo sapiens, HCT-116, 72 h)?
**A.** The IC50 was over 100 µM.

**Q.** What about the “Relaxation Assay (Top1 inhibitory activity)” value [3] of the same molecule?
**A.** The value was “+ (less than 10% activity)”.

**Q.** And the IC50 ([4]; Homo sapiens, MCF7, 72 h)?
**A.** Its IC50 is over 100 µM.
